Measured values: patent EP2208498B1, “PHARMACEUTICAL COMPOSITION COMBINING VARIOUS VENOTONIC AND VASOPROTECTIVE AGENTS FOR THE TREATMENT OF CHRONIC VENOUS INSUFFICIENCY” (priority 2007, dated 2009)

Assays:
[1] = cited from earlier work
[2] = test system: patients with chronic venous insufficiency
Procedure: A randomized, comparative clinical study was carried out wherein 150 patients with chronic venous insufficiency were included.
All patients were firstly treated with conventional therapy, combining compression with pharmacological treatment.
A full clinical history with physical examination was prepared for the patients, being assessed with Echo Doppler and CEAP classification, see Table 1.

haemorrhoidal crises = settings: 25 patients 1 500 mg per day calcium dobesilate; 26 patients 3000 mg per day flavonoid fraction of diosmine; cited from earlier work
[3] = Final symptomatology data after two months of treatment, n=50 per group, initial 100%

Compound: O=S(=O)(O)c1cc(O)ccc1O [calcium dobesilate, Calcium dobesilate]
- plasma peak ([1]; after oral administration): 8 µg/mL
- time of plasma peak ([1]; after oral administration): around 6 hours
- Plasma half-life ([1]; in vivo): about 5 hours
- administered dose removed in feces ([1]; remaining dose): 50%
- administered dose removed in urine ([1]; within the first 24 hours): 50%
- Itch ([2]; Final symptomatology data after two months of treatment, n=50 per group, initial 80-88%): 0
- Cramps [2, 3]: 0
- Heaviness [2, 3]: 0
- Limb pain [2, 3]: 0
- Doppler ([2]; Final symptomatology data after two months of treatment, n=50 per group, initial >9): <9
- reported side effects such as: head ache and tiredness sensation ([2]; human, in vivo): 14 patients
- improvement in haemorrhoidal crises (in words) (haemorrhoidal crises): significant improvement
